{"source": "patent US8383619B2", "about": "“Pharmaceutical compounds” (Astex Therapeutics Limited, priority 2008, dated 2013)", "experiment_in_all_cases": "Anti-proliferative assay (Oncodesign)", "format_in_all_cases": "cell-based", "key": {"U-937": {"tested_on": "U-937", "conditions": "Homo sapiens; U-937 (BLOOD); read-out: IC50 (Concentration of test compound)", "method": "(§1) The anti-proliferative activities of the parent compounds of the pro-drugs of the invention may be determined by measuring the ability of the compounds to inhibition of cell growth in a number of cell lines such as the human colon cancer cell line HCT116. Inhibition of cell growth is measured using the Alamar Blue assay (Nociari, M. M, Shalev, A., Benias, P., Russo, C. Journal of Immunological Methods 1998, 213, 157-167). The method is based on the ability of viable cells to reduce resazurin to its fluorescent product resorufin. For each proliferation assay cells are plated onto 96 well plates and allowed to recover for 16 hours prior to the addition of inhibitor compounds for a further 72 hours. At the end of the incubation period 10% (v/v) Alamar Blue is added and incubated for a further 6 hours prior to determination of fluorescent product at […]. In the case of the non-proliferating cell assay cells are maintained at confluence for 96 hour prior to the addition of inhibitor compounds for a further 72 hours. The number of viable cells is determined by Alamar Blue assay as before. Cell lines may be obtained from the ECACC (European Collection of cell Cultures).\n(§2) The parent compound of the pro-drugs of Examples 1 to 25 i.e. (2,4-dihydroxy-5-isopropyl-phenyl)-[5-(4-methyl-piperazin-1-ylmethyl)-1,3-dihydro-isoindol-2-yl]-methanone, in the form of its L-lactate salt, was tested in anti-proliferative assays against one hundred cell lines by Oncodesign (Dijon, France). The IC50 values against each cell line are set out in the table below and the figures in the table refer to nanomolar concentrations. The compounds were tested up to a concentration of 10,000 nanomolar."}, "LB1617-HNSCC": {"tested_on": "LB1617-HNSCC", "conditions": "LB1617-HNSCC (HEAD AND NECK); read-out: IC50 (Concentration of test compound)", "method": "as §1, §2"}, "MDA-MB-435S": {"tested_on": "MDA-MB-435S", "conditions": "Homo sapiens; MDA-MB-435S (BREAST); read-out: IC50 (Concentration of test compound)", "method": "as §1, §2"}, "SK-HEP-1": {"tested_on": "SK-HEP-1", "conditions": "Homo sapiens, SK-HEP1; SK-HEP-1 (LIVER); read-out: IC50 (Concentration of test compound)", "method": "as §1, §2"}, "ARH-77": {"tested_on": "ARH-77", "conditions": "Homo sapiens; ARH-77 (BLOOD); read-out: IC50 (Concentration of test compound)", "method": "as §1, §2"}, "CCRF-CEM": {"tested_on": "CCRF-CEM", "conditions": "Homo sapiens; CCRF-CEM (BLOOD); read-out: IC50 (Concentration of test compound)", "method": "as §1, §2"}, "Hep 3B2.1-7": {"tested_on": "Hep 3B2.1-7", "conditions": "Hep 3B2.1-7 (LIVER); read-out: IC50 (Concentration of test compound)", "method": "as §1, §2"}, "Calu-6": {"tested_on": "Calu-6", "conditions": "Homo sapiens; Calu-6 (LUNG); read-out: IC50 (Concentration of test compound)", "method": "as §1, §2"}, "A-427": {"tested_on": "A-427", "conditions": "Homo sapiens; A-427 (LUNG); read-out: IC50 (Concentration of test compound)", "method": "as §1, §2"}, "NIH: OVCAR-3/CPT20": {"tested_on": "NIH: OVCAR-3/CPT20", "conditions": "Homo sapiens; NIH: OVCAR-3/CPT20 (OVARY); read-out: IC50 (Concentration of test compound)", "method": "as §1, §2"}, "KCL-22": {"tested_on": "KCL-22", "conditions": "Homo sapiens; KCL-22 (BLOOD); read-out: IC50 (Concentration of test compound)", "method": "as §1, §2"}, "LB13-SCLC/OC3": {"tested_on": "LB13-SCLC/OC3", "conditions": "LB13-SCLC/OC3 (LUNG); read-out: IC50 (Concentration of test compound)", "method": "as §1, §2"}, "HCT-15": {"tested_on": "HCT-15", "conditions": "Homo sapiens; HCT-15 (COLON); read-out: IC50 (Concentration of test compound)", "method": "as §1, §2"}, "BxPC-3": {"tested_on": "BxPC-3", "conditions": "Homo sapiens; BxPC-3 (PANCREAS); read-out: IC50 (Concentration of test compound)", "method": "as §1, §2"}, "SW-872": {"tested_on": "SW-872", "conditions": "Homo sapiens, SW872; SW-872 (CONNECTIVE TISSUE); read-out: IC50 (Concentration of test compound)", "method": "as §1, §2"}, "HCT 116": {"tested_on": "HCT 116", "conditions": "Homo sapiens; HCT 116 (COLON); read-out: IC50 (Concentration of test compound)", "method": "as §1, §2"}, "LB37-NSCLC": {"tested_on": "LB37-NSCLC", "conditions": "LB37-NSCLC (LUNG); read-out: IC50 (Concentration of test compound)", "method": "as §1, §2"}, "J82": {"tested_on": "J82", "conditions": "Homo sapiens; J82 (URINARY BLADDER); read-out: IC50 (Concentration of test compound)", "method": "as §1, §2"}, "BB65-RCC": {"tested_on": "BB65-RCC", "conditions": "BB65-RCC (KIDNEY); read-out: IC50 (Concentration of test compound)", "method": "as §1, §2"}, "BB64-RCC": {"tested_on": "BB64-RCC", "conditions": "BB64-RCC (KIDNEY); read-out: IC50 (Concentration of test compound)", "method": "as §1, §2"}, "Daudi": {"tested_on": "Daudi", "conditions": "Homo sapiens; Daudi (BLOOD); read-out: IC50 (Concentration of test compound)", "method": "as §1, §2"}, "Ramos": {"tested_on": "Ramos", "conditions": "Homo sapiens; Ramos (BLOOD); read-out: IC50 (Concentration of test compound)", "method": "as §1, §2"}, "Hs 746T": {"tested_on": "Hs 746T", "conditions": "Homo sapiens, Hs746T; Hs 746T (STOMACH); read-out: IC50 (Concentration of test compound)", "method": "as §1, §2"}, "LoVo": {"tested_on": "LoVo", "conditions": "Homo sapiens; LoVo (COLON); read-out: IC50 (Concentration of test compound)", "method": "as §1, §2"}, "NCI-H1299": {"tested_on": "NCI-H1299", "conditions": "Homo sapiens; NCI-H1299 (LUNG); read-out: IC50 (Concentration of test compound)", "method": "as §1, §2"}}}
{"smiles": "CC(C)c1cc(C(=O)N2Cc3ccc(CN4CCN(C)CC4)cc3C2)c(O)cc1O", "note": "[(2,4-dihydroxy-5-isopropyl-phenyl)-[5-(4-methyl-piperazin-1-ylmethyl)-1,3-dihydro-isoindol-2-yl]-methanone]", "values": [{"measurement": "IC50", "setting": "U-937", "value": 104, "unit": "nM"}, {"measurement": "IC50", "setting": "LB1617-HNSCC", "value": 139, "unit": "nM"}, {"measurement": "IC50", "setting": "MDA-MB-435S", "value": 26, "unit": "nM"}, {"measurement": "IC50", "setting": "SK-HEP-1", "value": "> 10000", "unit": "nM"}, {"measurement": "IC50", "setting": "ARH-77", "value": "> 10000", "unit": "nM"}, {"measurement": "IC50", "setting": "CCRF-CEM", "value": 107, "unit": "nM"}, {"measurement": "IC50", "setting": "Hep 3B2.1-7", "value": 95, "unit": "nM"}, {"measurement": "IC50", "setting": "Calu-6", "value": 32, "unit": "nM"}, {"measurement": "IC50", "setting": "A-427", "value": 130, "unit": "nM"}, {"measurement": "IC50", "setting": "NIH: OVCAR-3/CPT20", "value": "> 10000", "unit": "nM"}, {"measurement": "IC50", "setting": "KCL-22", "value": 24, "unit": "nM"}, {"measurement": "IC50", "setting": "LB13-SCLC/OC3", "value": 21, "unit": "nM"}, {"measurement": "IC50", "setting": "HCT-15", "value": "> 10000", "unit": "nM"}, {"measurement": "IC50", "setting": "BxPC-3", "value": 196, "unit": "nM"}, {"measurement": "IC50", "setting": "SW-872", "value": "> 10000", "unit": "nM"}, {"measurement": "IC50", "setting": "HCT 116", "value": 38, "unit": "nM"}, {"measurement": "IC50", "setting": "LB37-NSCLC", "value": 63, "unit": "nM"}, {"measurement": "IC50", "setting": "J82", "value": 20, "unit": "nM"}, {"measurement": "IC50", "setting": "BB65-RCC", "value": 1250, "unit": "nM"}, {"measurement": "IC50", "setting": "BB64-RCC", "value": "> 10000", "unit": "nM"}, {"measurement": "IC50", "setting": "Daudi", "value": 136, "unit": "nM"}, {"measurement": "IC50", "setting": "Ramos", "value": 46, "unit": "nM"}, {"measurement": "IC50", "setting": "Hs 746T", "value": 34, "unit": "nM"}, {"measurement": "IC50", "setting": "LoVo", "value": 51, "unit": "nM"}, {"measurement": "IC50", "setting": "NCI-H1299", "value": 587, "unit": "nM"}]}
